Measurements as given in patent US20250002854A1, “METHODS OF GENERATING POPULATIONS OF TUMOUR-INFILTRATING T CELLS” (LYTIX BIOPHARMA AS, priority 2016, published 2025).
Square brackets hold non-standard residues; d marks the D form. Ends that are not written are not given here. Dip = N[C@H](C(=O)O)C(c1ccccc1)c1ccccc1

Tests used:
A20, murine lymphoma = experiment: LysoTracker DND-26 in non-melanocytic cell line; format: cell-based; conditions: data not shown
B16F1 cells [1] = experiment: Release of ATP (luciferin-luciferase); format: cell-based, murine; conditions: 54 μM, up to 120 min
Experimental: Serum-free RPMI 1640 treated cells functioned as a negative and blank control, respectively. Extracellular levels of ATP were measured at the end of the experiment using a luciferin-based ENLITEN ATP Assay kit (Promega, Madison, WI, USA), in which ATP-driven chemoluminescence was recorded on a Luminescence Microplate Reader (Labsystems Luminoskan®, Finland), and expressed as relative light units (RLU).

A375 cells [2] = experiment: Release of cytochrome-C (ELISA); format: cell-based, human; conditions: 35 μM
Experimental: A375 cells were seeded as with HMGB1 studies, and treated with 35 μM for different time points (5, 15, 45). Supernatants were collected and concentrated as with HMGB1 studies, and samples from the supernatants were analyzed using a 4.5 hour solid form Cytochrome C-Elisa kit (R&D Systems, USA, #DCTC0) following the manufacturer's description. Shortly thereafter, a 50% diluted sample was analyzed and the optical density was determined using a microplate reader set at 450 nm, and […]. A standard curve was generated for each set of samples assayed. Samples were run in four parallels, and the cytochrome-c released into the supernatant was expressed as a fold over the level of cytochrome-c in the supernatant of untreated cells.

B16F1 cells [3] = experiment: Secondary tumour challenge of animals cured by LTX-315; format: in vivo, C57BL/6 mice
Experimental: Tumour cells were harvested, washed in RPMI-1640 and injected intradermally (i.d.) into the right side of the abdomen in C57BL/6 mice (5×10^4 B16F1 cells per mouse/50 μl RPMI-1640). Palpable tumours (20-30 mm^2) were injected i.t. with single doses of LTX-315 or LTX-328 dissolved in saline (1.0 mg peptide/50 μl saline) once a day for 3 consecutive days, and the vehicle control was saline only (0.9% NaCl in sterile H2O). Tumour size was measured using an electronic caliper and expressed as the area of an ellipse [(maximum dimension/2)×(minimum dimension/2)×π]. Animals were then euthanized when the product of the perpendicular tumour dimensions reached 130 mm^2 or when tumour ulceration developed. […] Animals surviving the i.d. tumour re-challenge were later given a second tumour rechallenge intravenously (i.v.) (2×10^5 cells) through the tail vein. Lungs were harvested on day 19 after the i.v. re-challenge. All mice were monitored for tumour size and survival.

A375 cells [4] = experiment: TEM electron microscopy of A375 cells; format: cell-based, human
Experimental: A375 cells were seeded at 1×10^5 cells per well in 6-well plates and allowed to grow for three days to optimize membrane structures in the culture, and the media was changed on the second day. Cells were washed twice in serum-free RPMI before being treated with LTX-315 dissolved in serum-free RPMI at 5, 10 and 25 μg/ml, with serum-free RPMI as a negative control. Cells were then washed with PBS twice before fixation for 24 hours in 4° C. with 4% formaldehyde and 1% gluteralaldehyde in a Hepes buffer at pH 7.8. Dehydration and post-fixation protocols included incubation in a 5% buffered tannic acid and incubation in a 1% osmium-reduced ferrocyanide. Ultrathin sections were prepared, and uranyl acetate (5%) and Reynolds's lead citrate were used for staining and contrasting. Samples were examined on a JEOL JEM-1010 transmission electron microscope, and images were taken with an Olympus Morada side-mounted TEM CCD camera (Olympus soft imaging solutions, GmbH, Germany).

MCA205 sarcoma = conditions: mouse, in vivo
Experimental: Mice were subcutaneously injected into the right flank with 1×10^6 MCA205 cells. Tumour cell lines were inoculated into C57BL/6 mice. Tumour surfaces (longest dimension×perpendicular dimension) were routinely monitored by caliper. When tumours reached a size of 20-25 mm^2 (day 0), mice were administered intratumourally with three consecutive daily injections of 300 μg LTX-315. In T-cell depletion experiments (FIG. 24), anti-CD4 and anti-CD8 monoclonal antibodies (mAbs) (GK1.5 and 53-6.72, respectively; 200 μg per mouse) or their isotype controls (LTF-2 and 2A3, respectively) were injected intraperitoneally 3 and 4 days before the first LTX-315 injection and continued every other 7 days. All mAbs for in vivo use were obtained from BioXcell (West Lebanon, NH, USA), using the recommended isotype control mAbs.
Tumours and spleens were harvested 7 days after the first injection of LTX-315. Excised tumours were cut into small pieces and digested in RPMI-1640 medium containing Liberase at 25 μg/ml (Roche, Boulogne-Billancourt, France) and DNase1 at 150 UI/ml (Roche) for 30 min at 37° C. The mixture was subsequently passaged through a 100 μm cell strainer. […] All cells were analysed on a CyAn ADP (Beckman Coulter, Marseille, France) flow cytometer with FlowJo (Tree Star, Ashland, OR) software.

Compound: Cl.Cl.NCCNC(=O)C(CN)(CCCc1ccccc1)CCCc1ccccc1 [LTX-401]
- LysoTracker DND-26 signal (A20, murine lymphoma): achieved similar results
- extracellular concentration of ATP (B16F1 cells [1]): quickly rose 60 min after initiating treatment

Compound: K-K-W-W-K-K-W-Dip-K-NH2 (KKWWKKW[Dip]K-NH2) [LTX-315]
- cytochrome-C in the supernatant compared to untreated control cells (A375 cells [2]): three times more
- animals with no tumour take (B16F1 cells [3]; i.d. re-challenge): 60%
- animals with tumour growth absent (B16F1 cells [3]; i.d. re-challenge with B16F1 cells 4-5 weeks after CR): 15 out of the 25
- CD3+ T cell infiltration of lung tumour foci (B16F1 cells [3]; i.v. re-challenge, histology): significantly more infiltrated by CD3+ T cells
- mean # tumour foci (lung) (B16F1 cells [3]; i.v. re-challenge, n=7): 15.86
- cells with vacuolization (A375 cells [4]; 3.5 μM): approximately 20%
- number of necrotic cells (A375 cells [4]; 3.5 μM, 60 minutes): less than 5%
- ultrastructural changes (A375 cells [4]; 3.5 μM, 60 minutes): showed vacuolization, as well as some altering of the mitochondrial morphology
- cells displaying vacuolization (A375 cells [4]; 17 μM, 60 min): 4%
- cells with necrotic morphology and loss of plasma membrane integrity (A375 cells [4]; 17 μM, 60 min): approximately 40%
- mode of cell killing (A375 cells [4]; TEM, A375 cells): kills the tumor cells with a lytic mode of action
- cytotoxic CD4+ TILs in tumour beds (IFNγ+, IL-17+, IFNγ+ IL-17+) (MCA205 sarcoma): markedly increased
- cytotoxic CD8+ TILs in tumour beds (IFNγ+, TNFα+, IFNγ+ TNFα+) (MCA205 sarcoma): markedly increased
